Experiments:
human EP4 receptor [1] = molecular target: T1, human EP4 receptor (Homo sapiens, UniProt P35408); test: Recombinant human EP4 receptor binding assay (HEK-293-EBNA stable transfectants); conditions: read-out: Binding Data (IC50 in nM) hEP4
T1 construct: expressed in transfected cells
Description: (§1) Human Recombinant EP4 Receptor: Stable Transfectants.
(§2) Plasmids encoding the human EP4 receptor were prepared by cloning the respective coding sequences into the eukaryotic expression vector pCEP4 (Invitrogen). The pCEP4 vector contains an Epstein Barr virus (EBV) origin of replication, which permits episomal replication in primate cell lines expressing EBV nuclear antigen (EBNA-1). It also contains a hygromycin resistance gene that is used for eukaryotic selection. The cells employed for stable transfection were human embryonic kidney cells (HEK-293) that were transfected with and express the EBNA-1 protein. These HEK-293-EBNA cells (Invitrogen) were grown in medium containing Geneticin (G418) to maintain expression of the EBNA-1 protein. HEK-293 cells were grown in DMEM with 10% fetal bovine serum (FBS), 250 μg ml^−1 G418 (Life Technologies) and 200 μg ml^−1 gentamicin or penicillin/streptomycin.
(§3) For transfection, the cells were grown to 50-60% confluency on 10 cm plates. The plasmid pCEP4 incorporating cDNA inserts for the respective human prostanoid receptor (20 μg) was added to 500 μl of 250 mM CaCl2. HEPES buffered saline×2 (2×HBS, 280 mM NaCl, 20 mM HEPES acid, 1.5 mM Na2 HPO4, pH 7.05-7.12) was then added dropwise to a total of 500 μl, with continuous vortexing at room temperature. After 30 min, 9 ml DMEM were added to the mixture. The DNA/DMEM/calcium phosphate mixture was then added to the cells, which had been previously rinsed with 10 ml PBS. The cells were then incubated for 5 hr at 37° C. in humidified 95% air/5% CO2. The calcium phosphate solution was then removed and the cells were treated with 10% glycerol in DMEM for 2 min. The glycerol solution was then replaced by DMEM with 10% FBS. The cells were incubated overnight and the medium was replaced by DMEM/10% FBS containing 250 μg ml^−1 G418 and penicillin/streptomycin. The following day hygromycin B was added to a final concentration of 200 μg ml^−1.
(§4) Ten days after transfection, hygromycin B resistant clones were individually selected and transferred to a separate well on a 24 well plate. At confluence each clone was transferred to one well of a 6 well plate, and then expanded in a 10 cm dish. Cells were maintained under continuous hygromycin selection until use.
(§5) Certain of the above compounds were tested for activity in the recombinant human EP4 receptor assay described above and the results are reported in Table 1, below.

human EP4 receptor [2] = molecular target: T1, human EP4 receptor; test: Recombinant human EP4 receptor functional assay (HEK-293-EBNA stable transfectants); format: cell-based; conditions: read-out: Functional Data (EC50 in nM) hEP4
Description: as §1, §2, §3, §4, §5

T1 sequence (P35408 whole entry): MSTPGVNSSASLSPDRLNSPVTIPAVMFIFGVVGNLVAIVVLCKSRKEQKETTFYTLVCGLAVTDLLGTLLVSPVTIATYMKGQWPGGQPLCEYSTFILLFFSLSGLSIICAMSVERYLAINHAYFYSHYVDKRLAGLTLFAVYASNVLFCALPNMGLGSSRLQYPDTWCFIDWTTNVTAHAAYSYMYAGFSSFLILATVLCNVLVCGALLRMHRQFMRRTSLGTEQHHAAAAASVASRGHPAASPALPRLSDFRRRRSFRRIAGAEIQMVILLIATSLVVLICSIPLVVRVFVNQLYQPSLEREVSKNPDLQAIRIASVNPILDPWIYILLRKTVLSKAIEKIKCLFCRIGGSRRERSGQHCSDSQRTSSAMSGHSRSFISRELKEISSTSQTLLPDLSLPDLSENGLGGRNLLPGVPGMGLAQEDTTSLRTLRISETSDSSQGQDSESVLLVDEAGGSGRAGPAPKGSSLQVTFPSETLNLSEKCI

Row | IC50 (human EP4 receptor [1]) | EC50 (human EP4 receptor [2]) | Compound
1 | 200 nM | 136 nM | O=C(O)CCC/C=C\C[C@H]1C(=O)CC[C@@H](O)[C@@H]1/C=C/C(O)CCc1sc2ccccc2c1Cl (stereo partly drawn) [1 high Rf]
2 | 400 nM | 67 nM | O=C(O)CCC/C=C\C[C@H]1C(=O)CC[C@@H](O)[C@@H]1/C=C/C(O)CCc1sc2ccccc2c1Cl (stereo partly drawn) [1 low Rf]
3 | 100 nM | 11 nM | O=C(O)CCC/C=C\C[C@H]1C(=O)CC[C@@H](O)[C@@H]1/C=C/C(O)Cc1ccccc1 (stereo partly drawn) [Example 2, (Z)-7-[(1R,2R,3R)-3-Hydroxy-2-((E)-3-hydroxy-4-phenyl-but-1-enyl)-6-oxo-cyclohexyl]-hept-5-enoic acid]
4 | 1300 nM | 168 nM | O=C(O)CCC/C=C\C[C@H]1C(=O)CC[C@@H](O)[C@@H]1/C=C/C(O)Cc1csc2ccccc12 (stereo partly drawn) [Example 3, (Z)-7-[(1R,2R,3R)-2-((E)-4-Benzo[b]thiophen-3-yl-3-hydroxy-but-1-enyl)-3-hydroxy-6-oxo-cyclohexyl]-hept-5-enoic acid]
5 | 1000 nM | 214 nM | O=C(O)CCCC#CC[C@H]1C(=O)CC[C@@H](O)[C@@H]1/C=C/C(O)CCc1ccccc1 (stereo partly drawn) [Example 4, 7-[(1R,2R,3R)-3-Hydroxy-2-((E)-3-hydroxy-5-phenyl-pent-1-enyl)-6-oxo-cyclohexyl]-hept-5-ynoic acid]
6 | 35 nM | 314 nM | O=C(O)CCC/C=C\C[C@@H]1[C@@H](/C=C/C(O)CCc2sc3ccccc3c2Cl)[C@H](O)CC[C@H]1Cl (stereo partly drawn) [Example 6, (Z)-7-{(1R,2R,3R,6R)-6-Chloro-2-[(E)-5-(3-chloro-benzo[b]thiophen-2-yl)-3-hydroxy-pent-1-enyl]-3-hydroxy-cyclohexyl)-hept-5-enoic acid]
7 | 3500 nM | 362 nM | O=C(O)CCCC#CC[C@H]1C(=O)CC[C@@H](O)[C@@H]1/C=C/C(O)Cc1csc2ccccc12 (stereo partly drawn) [Example 8, 7-[(1R,2R,3R)-2-((E)-4-Benzo[b]thiophen-3-yl-3-hydroxy-but-1-enyl)-3-hydroxy-6-oxo-cyclohexyl]-hept-5-ynoic acid]
8 | 600 nM | 387 nM | CCCCC[C@H](O)CC[C@H]1[C@H](O)CCC(=O)[C@@H]1CCCCCCC(=O)O [Example 9, 7-[(1R,2R,3R)-3-Hydroxy-2-((S)-3-hydroxy-octyl)-6-oxo-cyclohexyl]-heptanoic acid]
9 | 1800 nM | 456 nM | O=C(O)CCC/C=C\C[C@H]1C(=O)C=CC[C@@H]1/C=C/C(O)CCc1sc2ccccc2c1Cl (stereo partly drawn) [Example 10, (Z)-7-{(1R,6R)-6-[(E)-5-(3-Chloro-benzo[b]thiophen-2-yl)-3-hydroxy-pent-1-enyl]-2-oxo-cyclohex-3-enyl}-hept-5-enoic acid]

Source: patent US7473704B2, “Cyclohexyl prostaglandin analogs as EP4-receptor agonists” (Allergan, Inc., priority 2003, dated 2009)
